Measurements as given in the NIST ThermoML archive (doi:10.1016/j.jct.2013.06.009).

Assay: mn = molality of the nth substance listed, in mol/kg
Conditions: 101.33 kPa, Liquid; for viscosity: Capillary tube (Ostwald / Ubbelohde) method; for mass density: Vibrating tube method

CO/N=C(\C(=O)N[C@@H]1C(=O)N2C(C(=O)O)=C(C[N+]3(C)CCCC3)CS[C@H]12)c1csc(N)n1.Cl.[Cl-] [cefepime dihydrochloride] + O
Conditions | mass density [kg/m3] | viscosity [mPa·s]
278.15 K, m1 = 0.01005 | 1002 | 1.544
278.15 K, m1 = 0.02017 | 1004.01 | 1.57
278.15 K, m1 = 0.0304 | 1006.02 | 1.597
278.15 K, m1 = 0.05103 | 1009.98 | 1.649
278.15 K, m1 = 0.07222 | 1013.97 | 1.705
278.15 K, m1 = 0.09333 | 1017.86 | 1.766
278.15 K, m1 = 0.1154 | 1021.84 | 1.824
278.15 K, m1 = 0.1343 | 1025.19 | 1.88
278.15 K, m1 = 0.1521 | 1028.29 | 1.937
283.15 K, m1 = 0.01005 | 1001.73 | 1.324
283.15 K, m1 = 0.02017 | 1003.73 | 1.348
283.15 K, m1 = 0.0304 | 1005.73 | 1.371
283.15 K, m1 = 0.05103 | 1009.67 | 1.416
283.15 K, m1 = 0.07222 | 1013.62 | 1.463
283.15 K, m1 = 0.09333 | 1017.47 | 1.517
283.15 K, m1 = 0.1154 | 1021.4 | 1.566
283.15 K, m1 = 0.1343 | 1024.71 | 1.613
283.15 K, m1 = 0.1521 | 1027.79 | 1.663
288.15 K, m1 = 0.01005 | 1001.11 | 1.148
288.15 K, m1 = 0.02017 | 1003.1 | 1.17
288.15 K, m1 = 0.0304 | 1005.08 | 1.19
288.15 K, m1 = 0.05103 | 1008.98 | 1.228
288.15 K, m1 = 0.07222 | 1012.89 | 1.269
288.15 K, m1 = 0.09333 | 1016.7 | 1.316
288.15 K, m1 = 0.1154 | 1020.61 | 1.359
288.15 K, m1 = 0.1343 | 1023.89 | 1.4
288.15 K, m1 = 0.1521 | 1026.93 | 1.443
293.15 K, m1 = 0.01005 | 1000.2 | 1.013
293.15 K, m1 = 0.02017 | 1002.18 | 1.031
293.15 K, m1 = 0.0304 | 1004.15 | 1.049
293.15 K, m1 = 0.05103 | 1008.03 | 1.082
293.15 K, m1 = 0.07222 | 1011.91 | 1.12
293.15 K, m1 = 0.09333 | 1015.7 | 1.161
293.15 K, m1 = 0.1154 | 1019.57 | 1.199
293.15 K, m1 = 0.1343 | 1022.82 | 1.235
293.15 K, m1 = 0.1521 | 1025.83 | 1.273
298.15 K, m1 = 0.01005 | 999.04 | 0.899
298.15 K, m1 = 0.02017 | 1001.01 | 0.9159
298.15 K, m1 = 0.0304 | 1002.97 | 0.9314
298.15 K, m1 = 0.05103 | 1006.84 | 0.9593
298.15 K, m1 = 0.07222 | 1010.7 | 0.9939
298.15 K, m1 = 0.09333 | 1014.46 | 1.029
298.15 K, m1 = 0.1154 | 1018.29 | 1.065
298.15 K, m1 = 0.1343 | 1021.51 | 1.096
298.15 K, m1 = 0.1521 | 1024.5 | 1.13
303.15 K, m1 = 0.01005 | 997.63 | 0.8046
303.15 K, m1 = 0.02017 | 999.59 | 0.8192
303.15 K, m1 = 0.0304 | 1001.53 | 0.8325
303.15 K, m1 = 0.05103 | 1005.38 | 0.8581
303.15 K, m1 = 0.07222 | 1009.21 | 0.8888
303.15 K, m1 = 0.09333 | 1012.95 | 0.9175
303.15 K, m1 = 0.1154 | 1016.75 | 0.9513
303.15 K, m1 = 0.1343 | 1019.94 | 0.9813
303.15 K, m1 = 0.1521 | 1022.9 | 1.01
308.15 K, m1 = 0.01005 | 996.01 | 0.7235
308.15 K, m1 = 0.02017 | 997.96 | 0.7352
308.15 K, m1 = 0.0304 | 999.9 | 0.7465
308.15 K, m1 = 0.05103 | 1003.71 | 0.7718
308.15 K, m1 = 0.07222 | 1007.53 | 0.7974
308.15 K, m1 = 0.09333 | 1011.24 | 0.8261
308.15 K, m1 = 0.1154 | 1015.02 | 0.8553
308.15 K, m1 = 0.1343 | 1018.18 | 0.881
308.15 K, m1 = 0.1521 | 1021.12 | 0.904
313.15 K, m1 = 0.01005 | 994.18 | 0.6561
313.15 K, m1 = 0.02017 | 996.12 | 0.6652
313.15 K, m1 = 0.0304 | 998.04 | 0.6753
313.15 K, m1 = 0.05103 | 1001.85 | 0.6976
313.15 K, m1 = 0.07222 | 1005.64 | 0.7193
313.15 K, m1 = 0.09333 | 1009.33 | 0.7448
313.15 K, m1 = 0.1154 | 1013.07 | 0.7705
313.15 K, m1 = 0.1343 | 1016.22 | 0.7947
313.15 K, m1 = 0.1521 | 1019.14 | 0.8162
